From US11484501B2, “Mechanochemical activated dry amorphisation by milling equilibrium between ap mesoporous silica” (priority 2015, dated 2022)

Experiment: Amorphonisation of co-milled drug by X-ray diffraction and DSC
Assay type: physicochemical
Details: vibration ball mill
Method: Amorphonisation of co-milled IBU was confirmed by DSC and X-RD study. Drug release studies were conducted by and using USP Dissolution apparatus II and media (e.g., acetate buffer) of pH 4.5. Formation of hydrogen bond between silanol groups of SYLOID® silica and functional groups of IBU were believe to be the key to drug amorphonisation in the co-milling process. To confirm the IBU amorphonisation, X-ray diffraction study (XRD) was conducted. […] Additionally, DSC studies were conducted to understand the amorphonisation and possible interaction between silanol groups of SYLOID® silica and IBU. DSC thermograms, shown in FIGS. 5A-5B, confirmed both change in enthalpy and symmetry of peak shape.

Q: Which “amorphonisation of the crystalline drug into an amorphous state by (co-)milling” value does the source give for CC(C)Cc1ccc(C(C)C(=O)O)cc1 (stereo not shown) [IBU, ibuprofen] here?
A: The value was “does not result in an amorphous form”.
